Results taken from patent publication US6544750B1, “Peptide analogs as selective inhibitors of thrombin activation of protease activated receptor 1” (Thromgen, Inc., priority 1999, dated 2003).
Entries after “also recorded” stand apart in the source; their conditions may differ. Ends that are not written are not given here.

Tests used:
[1] = tested on: platelets (platelet-rich plasma); test: ADP-induced platelet aggregation in platelet-rich plasma; assay type: cell-based, human; conditions: 1 mM peptide, 4.5 μM ADP
Protocol: (§1) Fresh whole blood was collected and mixed with 0.013 M sodium citrate and platelet-rich plasma was prepared according to the method of Meloni et al., J. Biol. Chem. 266, 6786 (1991). Platelet-rich plasma with a normalized platelet count between 2-2.5×10^8 platelets/ml was added to a cuvette of an aggregometer (Chronlog Corp., Havertown, Pa.), standardized using the protocol of Meloni et al., supra. Peptides to be examined were added to the cuvette and the mixture stabilized for a few moments. Once the baseline was stabilized, γ-thrombin (10-70 NM) (Haematologic Technologies, Essex Junction, Vt.) was added to determine the minimal concentration of the agonist necessary to achieve full platelet aggregation. All investigations with peptides were performed using threshold concentrations of γ-thrombin. Aggregation was allowed to proceed for 5 minutes before stopping. When ADP-induced platelet aggregation studies were performed, 1-5 μM ADP (Sigrna) was added to the cuvette containing platelet-rich plasma.

[2] = tested on: platelets (platelet-rich plasma); test: γ-thrombin-induced platelet aggregation in platelet-rich plasma; assay type: cell-based, human; conditions: for peptide concentration at which γ-thrombin-induced platelet aggregation returned: 70 nM γ-thrombin; for Fold Increase in Aggregation Inhibition over RPPGF: γ-thrombin, compared to RPPGF at 0.2 mM
Protocol: as §1

[3] = target: T1, biotin-NAT12 (NATLDPRSFLLR, peptide from PAR1) (Homo sapiens, UniProt P25116); test: Biotin-NAT12 binding assay to peptides coupled to microtiter plates; conditions: relative to RPPGF given arbitrary binding level of 1
Protocol: A third assay was developed to ascertain the ability of biotin-NAT12 (NATLDPRSFLLR, SEQ ID NO: 41) to directly bind to peptides linked to microtiter plates. In this assay, peptide analogs were linked to microtiter plate cuvette wells by incubation of the peptide in 0.1 M Na2CO3, pH 9.6 buffer overnight at 4° C. After coupling the peptide to the cuvette well, the wells were dumped and each well was blocked with 1% bovine serun albumin in 0.01 M Na3PO4, 0.15 M NaCl, at pH 7.4. After incubation for 1 hour, the wells were dumped and washed three times with PBS-Tween. The wells were then incubated with biotin-NAT12. The amount of biotin-NAT12 bound was determined by adding streptavidin-peroxidase followed by adding turbo TMB (Pierce).
In decreasing order of binding level, these peptides include: RGKSC, RGKMC, RGKHC, RGKKC, RGKFC, RGKLC, RGKWC, and RGKVC (SEQ ID NOS 18, 7, 13, 14, 11, 1, 5 and 19, respectively). […] The best to least RGDO4C (SEQ ID NO: 44) peptides to bind biotin-NAT12 listed in Table VI are: RGDSC, RGDGC, RGDQC, RGDEC, RGDIC, RGDPC, RGDDC, and RGDYC (SEQ ID NOS 34, 28, 23, 22, 36, 38, 27 and 35, respectively). A solid phase peptide-peptide binding assay was used to determine biotin-NAT12 binding to library peptides. Test peptides in 0.1 M Na2CO3, pH 9.6 buffer, at 10 μg/well in 50 μl volume, were coupled to microtiter plate wells by overnight incubation at 4° C. After incubation, the contents of the wells were discarded and the wells were washed with a pH 7.4 buffer containing 0.01 M Na3PO4, 0.15 M NaCl, and 0.01% Tween 20. After blocking each well with 1% radioimmunoassay grade bovine serum albumin, the linked peptides were incubated with 100 μl of 100 μM biotin-NAT12 for 1 hour at 37° C. After incubation, the contents of the wells were dumped and the wells were washed three times (100 μl/well each time) with the buffer identified above. Each well then was incubated with 100 μl of 2 μg/ml solution of Immuno-Pure streptoavidin horeseradish peroxidase conjugate (Pierce Chemical Co., […], Ill.) for 1 hour at room temperature. The contents of the wells were discarded and the wells were washed three times as described above. The wells were then incubated with 100 μl of peroxidase-specific fast reacting substrate, turbo-3,3′,5,5′-tetramethylbenzidine (turbo-TMB, Pierce) for 5 minutes at room temperature and the developing color reaction was stopped by the addition of 100 μof 1 M phosphoric acid. The absorbance was measured at 450 nm using a Microplate Auto Reader EL311 (Bio-Tek, Winooski, Vt.).

[4] = tested on: Normal human lung fibroblasts (NHLF); test: α-thrombin-induced calcium mobilization in fibroblasts (fura-2); assay type: cell-based; conditions: for Ca2+ % Inhibition At 0.2 mM Peptide: thrombin-induced calcium mobilization in fibroblasts
Protocol: The second assay developed to assess peptides from the combinatorial libraries uses inhibition of α-thrombin-induced calcium mobilization in fibroblasts. Normal human lung fibroblasts (NHLF) were purchased from Clonetics, San Diego, Calif., an affiliate of Bio-Wittaker, Walkersville, Md. The cytoplasmic free Ca^2+ concentration ([Ca^2+]i) was measured using the fluorescent Ca^2+ indicator fura-2 (Molecular Probes, Inc., Eugene, Oreg.). Suspension of fibroblasts in Hepes-Tyrode's buffer were loaded with fura-2 by incubation at 37° C. with 2 μM fura-2/acetoxymethyl ester for 45 minutes according to the method of Rasmussen et al., J. Biol. Chem. 268, 14322 (1993). The labeled fibroblasts were separated from excess probe by washing by centrifugation at 1000 rpm (180×g). Aliquots of the labeled fibroblasts were transferred into a quartz cuvette with a magnetic stirrer, which was then placed in a thennostatically controlled chamber at 37° C. in a fluorescence spectrophotometer (Perkin-Elmer LS50B spectrofluorometer, Chicago, Ill.). Reagents, test peptide (SEQ ID NO: 5) (from 0.2 mM to effective lower concentration), and α-thrombin (2-4 nM), were sequentially added directly to the cuvette. The excitation wavelengths varied between 340 and 380 nm. Fluorescence was measured by recording emitted light at 510 nm as reported by Fisher et al., Mol Pharm. 35, 195 (1989). The minimum emission was determined on a solubilized fibroblast sample in the presence of 10 mM EDTA; maximum emission was determined on the same sample with 10 mM Ca^2+ added. The intrafibroblast free Ca^2+ concentration was calculated by the method of Grykiewicz et al., J. Biol. Chem. 260, 3440 (1985). The ratio of the fluorescence readings was calculated as R=340/380 nm and processed according to the equation [Ca^2+]i=KD((R−Rmim)/Rmax−R)) (Sf2/Sb2) to determine the intrafibroblast free Ca^2+ concentration. The KD for fura-2 was assumed to be 224 nM. Rmax and Rmin are the maximum and minimum fluorescence ratios measured at the end of the experiment, respectively; Sf2 and Sb2 are the fluorescence values at 380 nm in the absence and presence of saturating [Ca 2+], respectively. The reaction was monitored for 3-5 minutes. […] In FIG. 4, peptide RGDWC (SEQ ID NO: 20) at 0.2 mM inhibited 31% of 4 nM α-thrombin-induced Ca^2+ mobilization in fibroblasts.

[5] = target: T1, biotin-NAT12 (NATLDPRSFLLR, peptide from PAR1); test: Biotin-NAT12 binding assay to peptides coupled to microtiter plates; conditions: peptides at 10 μg/ml coupled to microtiter plate
[6] = RGKO4C sublibrary, platelet-rich plasma

Level of Binding to Biotin-NAT12 ([3]; RGDO4C sublibrary)	Level of Binding to Biotin-NAT12 ([3]; RGKO4C sublibrary)	Substance	Fold Increase in Aggregation Inhibition over RPPGF ([2]; RGDO4C sublibrary)	Fold Increase in Aggregation Inhibition over RPPGF [2, 6]	Ca2+ % Inhibition At 0.2 mM Peptide ([4]; RGKO4C sublibrary)	Ca2+ % Inhibition At 0.2 mM Peptide ([4]; RGDO4C sublibrary)	also measured
1	1.0	Arg-Pro-Pro-Gly-Phe (RPPGF) [bradykinin analog peptide used as control, reference compound]	1 fold	1.0 fold			effect on ADP-induced platelet aggregation (in words) [1]: did not inhibit; peptide concentration at which γ-thrombin-induced platelet aggregation returned ([2]; platelet-rich plasma): 0.25 mM
	1.3	Arg-Gly-Lys-Trp-Cys (RGKWC-NH2) [peptide of the H-R-G-K-O4-C-NH2 sublibrary]		1.3 fold	62.5%		effect on ADP-induced platelet aggregation (in words) [1]: did not inhibit; peptide concentration at which α-thrombin overcame the inhibitory effect on Ca2+ mobilization ([4]; 2 nM α-thrombin, fibroblasts): 12.5 µM; peptide concentration at which α-thrombin-induced calcium mobilization is abolished ([4]; 2 nM α-thrombin, fibroblasts): 0.2 mM; peptide concentrations blocking α-thrombin-induced Ca2+ mobilization ([4]; 2 nM α-thrombin, fibroblasts): ≥ 50 µM; level of biotin-NAT12 binding compared with other peptides (in words) [5]: binds to a greater extent than peptide RGDWC; also recorded: greater than RPPGF; also recorded: less than that seen with the multiple branched peptide MAP4RPPGF; peptide concentration at which γ-thrombin-induced platelet aggregation returned ([2]; platelet-rich plasma): 0.125 mM
	0.597	RGKTC: peptide of the H-R-G-K-O4-C-NH2 sublibrary (H-RGKTC-NH2)		4.4 fold	26.8%		
0.723		RGDVC: peptide of the H-R-G-D-O4-C-NH2 sublibrary (H-RGDVC-NH2)	15 fold			2.56%	

The next lines start with the substance.

Substance	Level of Binding to Biotin-NAT12 ([3]; RGDO4C sublibrary)	Level of Binding to Biotin-NAT12 ([3]; RGKO4C sublibrary)	Fold Increase in Aggregation Inhibition over RPPGF ([2]; RGDO4C sublibrary)	Fold Increase in Aggregation Inhibition over RPPGF [2, 6]	Ca2+ % Inhibition At 0.2 mM Peptide ([4]; RGKO4C sublibrary)	Ca2+ % Inhibition At 0.2 mM Peptide ([4]; RGDO4C sublibrary)	also measured
RGDSC: peptide of the H-R-G-D-O4-C-NH2 sublibrary (H-RGDSC-NH2)	1.44		5 fold			0%	level of biotin-NAT12 binding compared with other peptides (in words) [5]: equivalent to the ability of RGKWC
RGKRC: peptide of the H-R-G-K-O4-C-NH2 sublibrary (H-RGKRC-NH2)		0.38		2.5 fold	35.7%		
RGDKC: peptide of the H-R-G-D-O4-C-NH2 sublibrary (H-RGDKC-NH2)	0.67		7.5 fold			28.1%	
RGDTC: peptide of the H-R-G-D-O4-C-NH2 sublibrary (H-RGDTC-NH2)	0.746		7.5 fold			0%	
RGDQC: peptide of the H-R-G-D-O4-C-NH2 sublibrary (H-RGDQC-NH2)	1.32		15.8 fold			8.45%	
RGDHC: peptide of the H-R-G-D-O4-C-NH2 sublibrary (H-RGDHC-NH2)	0.759		14.8 fold			9.9%	
RGDLC: peptide of the H-R-G-D-O4-C-NH2 sublibrary (H-RGDLC-NH2)	0.98		7.5 fold			0%	
RGDYC: peptide of the H-R-G-D-O4-C-NH2 sublibrary (H-RGDYC-NH2)	1.05		5 fold			16.4%	
RGKIC: peptide of the H-R-G-K-O4-C-NH2 sublibrary (H-RGKIC-NH2)		0.98		1.3 fold	13.8%		
